Results as given in the kinase profiling compilation of Christmann-Franck et al. (2016).

Legend:
Assay in all cases: KINOMEscan competition binding
Conditions in all cases: compound 10.0 µM
[1] = biological target: PIM3 (human) (UniProt Q86V86)
[2] = biological target: PTK6 (human) (UniProt Q13882)
[3] = biological target: HIPK4 (human) (UniProt Q8NE63)
[4] = biological target: MST4 (human) (UniProt Q9P289)
[5] = biological target: PIK3CB (human) (UniProt P42338)
[6] = biological target: STK32A (human) (UniProt Q8WU08)
[7] = biological target: MAP3K5 (human) (UniProt Q99683)
[8] = biological target: CDC42BPG (human) (UniProt Q6DT37)
[9] = biological target: CDK13 (human) (UniProt Q14004)
[10] = biological target: IRAK4 (human) (UniProt Q9NWZ3)
[11] = biological target: LCK (human) (UniProt P06239)
[12] = biological target: CSNK1D (human) (UniProt P48730)
[13] = biological target: MAP2K3 (human) (UniProt P46734)
[14] = biological target: ZAP70 (human) (UniProt P43403)
[15] = biological target: CDKL3 (human) (UniProt Q8IVW4)
[16] = biological target: RPS6KA5 KD1 (human) (UniProt O75582)
[17] = biological target: MTOR (human) (UniProt P42345)
[18] = biological target: PIK3CG (human) (UniProt P48736)
[19] = biological target: CDK19 (human) (UniProt Q9BWU1)
[20] = biological target: TBK1 (human) (UniProt Q9UHD2)
[21] = biological target: PIK3CA (human) (UniProt P42336)
[22] = biological target: PDGFRB (human) (UniProt P09619)
[23] = biological target: MYLK2 (human) (UniProt Q9H1R3)
[24] = biological target: CSNK1G1 (human) (UniProt Q9HCP0)
[25] = biological target: EPHA4 (human) (UniProt P54764)
[26] = biological target: CDKL5 (human) (UniProt O76039)
[27] = biological target: STK17B (human) (UniProt O94768)
[28] = biological target: CLK1 (human) (UniProt P49759)
[29] = biological target: CDK9 (human) (UniProt P50750)
[30] = biological target: CDK15 (human) (UniProt Q96Q40)
[31] = biological target: PTK2 (human) (UniProt Q05397)
[32] = biological target: CHUK (human) (UniProt O15111)
[33] = biological target: PDPK1 (human) (UniProt O15530)
[34] = biological target: RPS6KA2 KD1 (human) (UniProt Q15349)
[35] = tested on: LRRK2 (human), Q5S007 [G2019S]
[36] = biological target: TTK (human) (UniProt P33981)
[37] = biological target: STK36 (human) (UniProt Q9NRP7)
[38] = biological target: TAOK3 (human) (UniProt Q9H2K8)
[39] = biological target: DCLK2 (human) (UniProt Q8N568)
[40] = biological target: MAPK6 (human) (UniProt Q16659)

Sequence of PTK2 (human) (Q05397 whole entry, looked up): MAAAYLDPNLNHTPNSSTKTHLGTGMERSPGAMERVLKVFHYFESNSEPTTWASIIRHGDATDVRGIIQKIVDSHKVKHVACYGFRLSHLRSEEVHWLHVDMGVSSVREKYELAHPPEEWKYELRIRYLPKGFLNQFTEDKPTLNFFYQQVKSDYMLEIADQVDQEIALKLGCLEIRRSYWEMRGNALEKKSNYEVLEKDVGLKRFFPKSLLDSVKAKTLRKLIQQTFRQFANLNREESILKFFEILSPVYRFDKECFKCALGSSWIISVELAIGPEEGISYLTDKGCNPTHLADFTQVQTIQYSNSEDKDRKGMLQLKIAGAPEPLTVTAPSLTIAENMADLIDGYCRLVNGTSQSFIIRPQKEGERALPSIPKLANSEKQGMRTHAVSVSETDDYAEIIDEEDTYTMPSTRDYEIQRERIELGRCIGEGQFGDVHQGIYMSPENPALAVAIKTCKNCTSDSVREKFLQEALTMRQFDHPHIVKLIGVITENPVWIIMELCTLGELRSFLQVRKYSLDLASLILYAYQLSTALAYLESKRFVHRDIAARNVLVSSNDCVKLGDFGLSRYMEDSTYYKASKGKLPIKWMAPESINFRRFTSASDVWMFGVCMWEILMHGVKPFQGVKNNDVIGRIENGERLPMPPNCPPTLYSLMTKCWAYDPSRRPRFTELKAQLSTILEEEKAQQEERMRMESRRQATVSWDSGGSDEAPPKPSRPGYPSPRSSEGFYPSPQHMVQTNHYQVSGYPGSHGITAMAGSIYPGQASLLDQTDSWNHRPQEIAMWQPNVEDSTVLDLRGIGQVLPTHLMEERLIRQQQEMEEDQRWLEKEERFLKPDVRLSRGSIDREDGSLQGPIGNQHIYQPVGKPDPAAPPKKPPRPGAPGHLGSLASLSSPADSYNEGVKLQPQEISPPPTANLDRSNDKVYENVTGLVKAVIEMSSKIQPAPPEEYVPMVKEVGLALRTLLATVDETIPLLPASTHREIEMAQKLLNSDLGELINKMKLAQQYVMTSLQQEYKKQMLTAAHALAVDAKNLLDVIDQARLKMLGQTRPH
Sequence of STK36 (human) (Q9NRP7 whole entry, looked up): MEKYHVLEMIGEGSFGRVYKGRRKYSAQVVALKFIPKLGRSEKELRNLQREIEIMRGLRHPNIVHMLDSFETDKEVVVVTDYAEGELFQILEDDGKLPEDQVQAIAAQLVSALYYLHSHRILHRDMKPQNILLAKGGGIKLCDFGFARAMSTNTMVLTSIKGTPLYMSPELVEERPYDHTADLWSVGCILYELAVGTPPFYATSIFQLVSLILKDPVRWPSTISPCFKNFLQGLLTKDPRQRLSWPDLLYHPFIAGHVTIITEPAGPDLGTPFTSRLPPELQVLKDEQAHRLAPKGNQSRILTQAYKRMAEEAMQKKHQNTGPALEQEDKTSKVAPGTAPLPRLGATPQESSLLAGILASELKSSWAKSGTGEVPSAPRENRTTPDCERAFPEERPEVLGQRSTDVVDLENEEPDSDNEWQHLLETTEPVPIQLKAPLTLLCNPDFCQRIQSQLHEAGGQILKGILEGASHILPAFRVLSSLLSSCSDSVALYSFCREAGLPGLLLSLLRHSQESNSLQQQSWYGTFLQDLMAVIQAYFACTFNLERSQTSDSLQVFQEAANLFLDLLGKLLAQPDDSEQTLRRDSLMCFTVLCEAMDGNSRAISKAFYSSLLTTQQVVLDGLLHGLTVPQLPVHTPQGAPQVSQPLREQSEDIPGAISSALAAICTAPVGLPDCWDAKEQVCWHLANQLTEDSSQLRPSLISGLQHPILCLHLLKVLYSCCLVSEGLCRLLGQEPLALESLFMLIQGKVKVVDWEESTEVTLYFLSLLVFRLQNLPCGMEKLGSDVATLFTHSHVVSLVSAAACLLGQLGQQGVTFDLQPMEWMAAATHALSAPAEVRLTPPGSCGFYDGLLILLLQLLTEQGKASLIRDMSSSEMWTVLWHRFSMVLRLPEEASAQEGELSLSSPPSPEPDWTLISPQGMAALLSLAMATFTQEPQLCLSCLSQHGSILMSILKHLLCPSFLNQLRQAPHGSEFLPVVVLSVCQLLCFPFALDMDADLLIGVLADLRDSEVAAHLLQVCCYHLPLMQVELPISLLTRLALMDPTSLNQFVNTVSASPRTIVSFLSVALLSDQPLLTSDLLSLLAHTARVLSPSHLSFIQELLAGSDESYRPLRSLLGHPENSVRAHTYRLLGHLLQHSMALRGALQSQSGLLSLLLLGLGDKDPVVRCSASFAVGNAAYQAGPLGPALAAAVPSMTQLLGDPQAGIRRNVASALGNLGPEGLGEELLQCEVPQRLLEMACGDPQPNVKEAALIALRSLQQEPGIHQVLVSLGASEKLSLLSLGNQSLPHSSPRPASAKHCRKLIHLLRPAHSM
Sequence of PIK3CG (human) (P48736 whole entry, looked up): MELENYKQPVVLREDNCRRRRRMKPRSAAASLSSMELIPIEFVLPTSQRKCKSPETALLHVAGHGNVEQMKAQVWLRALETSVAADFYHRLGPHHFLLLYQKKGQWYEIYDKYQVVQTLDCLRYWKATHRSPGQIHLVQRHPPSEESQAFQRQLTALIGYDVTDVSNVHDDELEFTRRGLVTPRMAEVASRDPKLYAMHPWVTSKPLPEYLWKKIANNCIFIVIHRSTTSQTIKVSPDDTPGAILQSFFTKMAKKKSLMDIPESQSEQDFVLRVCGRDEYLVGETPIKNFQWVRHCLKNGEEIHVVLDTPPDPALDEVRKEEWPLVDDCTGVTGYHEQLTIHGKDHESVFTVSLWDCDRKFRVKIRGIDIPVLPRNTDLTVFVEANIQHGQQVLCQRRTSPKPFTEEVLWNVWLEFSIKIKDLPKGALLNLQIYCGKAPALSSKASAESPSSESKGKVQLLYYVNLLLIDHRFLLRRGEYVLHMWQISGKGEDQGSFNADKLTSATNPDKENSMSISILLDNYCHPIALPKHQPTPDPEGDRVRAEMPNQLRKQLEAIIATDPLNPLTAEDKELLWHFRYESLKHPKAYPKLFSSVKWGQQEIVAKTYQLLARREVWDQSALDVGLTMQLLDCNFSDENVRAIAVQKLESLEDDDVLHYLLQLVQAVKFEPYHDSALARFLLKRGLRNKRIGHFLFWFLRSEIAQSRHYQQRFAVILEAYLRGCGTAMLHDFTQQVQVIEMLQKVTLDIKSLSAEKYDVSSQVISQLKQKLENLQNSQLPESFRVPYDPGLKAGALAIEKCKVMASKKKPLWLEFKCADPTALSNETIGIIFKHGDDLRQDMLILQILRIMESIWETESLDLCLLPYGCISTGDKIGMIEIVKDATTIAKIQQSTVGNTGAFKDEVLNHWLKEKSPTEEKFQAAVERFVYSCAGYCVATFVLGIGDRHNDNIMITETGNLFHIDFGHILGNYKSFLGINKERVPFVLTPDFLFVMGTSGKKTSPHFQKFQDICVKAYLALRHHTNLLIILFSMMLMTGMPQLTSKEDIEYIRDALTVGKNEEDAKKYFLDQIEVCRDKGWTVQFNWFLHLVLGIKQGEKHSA
Sequence of CDK9 (human) (P50750 whole entry, looked up): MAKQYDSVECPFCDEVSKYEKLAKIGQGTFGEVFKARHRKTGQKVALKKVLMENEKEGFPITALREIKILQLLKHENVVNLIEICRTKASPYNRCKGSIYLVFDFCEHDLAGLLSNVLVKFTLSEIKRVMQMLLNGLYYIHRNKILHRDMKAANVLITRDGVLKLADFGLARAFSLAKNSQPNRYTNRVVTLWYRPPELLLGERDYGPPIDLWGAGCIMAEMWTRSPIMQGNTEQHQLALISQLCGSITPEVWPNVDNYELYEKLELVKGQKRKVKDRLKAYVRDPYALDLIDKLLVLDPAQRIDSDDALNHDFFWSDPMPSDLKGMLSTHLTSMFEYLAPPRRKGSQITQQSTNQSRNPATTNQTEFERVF
Sequence of PTK6 (human) (Q13882 whole entry, looked up): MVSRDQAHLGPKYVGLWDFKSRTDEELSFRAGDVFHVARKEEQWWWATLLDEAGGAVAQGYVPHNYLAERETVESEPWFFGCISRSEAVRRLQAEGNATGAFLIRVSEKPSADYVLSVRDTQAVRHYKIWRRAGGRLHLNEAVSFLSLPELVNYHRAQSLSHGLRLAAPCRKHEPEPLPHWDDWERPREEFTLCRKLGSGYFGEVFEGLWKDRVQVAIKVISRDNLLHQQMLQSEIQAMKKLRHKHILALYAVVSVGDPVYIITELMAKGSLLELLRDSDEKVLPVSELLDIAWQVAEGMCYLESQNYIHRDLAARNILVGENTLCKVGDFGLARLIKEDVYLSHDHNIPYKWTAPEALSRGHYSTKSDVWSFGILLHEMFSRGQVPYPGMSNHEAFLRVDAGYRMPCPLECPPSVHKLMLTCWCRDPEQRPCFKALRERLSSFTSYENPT
Sequence of HIPK4 (human) (Q8NE63 whole entry, looked up): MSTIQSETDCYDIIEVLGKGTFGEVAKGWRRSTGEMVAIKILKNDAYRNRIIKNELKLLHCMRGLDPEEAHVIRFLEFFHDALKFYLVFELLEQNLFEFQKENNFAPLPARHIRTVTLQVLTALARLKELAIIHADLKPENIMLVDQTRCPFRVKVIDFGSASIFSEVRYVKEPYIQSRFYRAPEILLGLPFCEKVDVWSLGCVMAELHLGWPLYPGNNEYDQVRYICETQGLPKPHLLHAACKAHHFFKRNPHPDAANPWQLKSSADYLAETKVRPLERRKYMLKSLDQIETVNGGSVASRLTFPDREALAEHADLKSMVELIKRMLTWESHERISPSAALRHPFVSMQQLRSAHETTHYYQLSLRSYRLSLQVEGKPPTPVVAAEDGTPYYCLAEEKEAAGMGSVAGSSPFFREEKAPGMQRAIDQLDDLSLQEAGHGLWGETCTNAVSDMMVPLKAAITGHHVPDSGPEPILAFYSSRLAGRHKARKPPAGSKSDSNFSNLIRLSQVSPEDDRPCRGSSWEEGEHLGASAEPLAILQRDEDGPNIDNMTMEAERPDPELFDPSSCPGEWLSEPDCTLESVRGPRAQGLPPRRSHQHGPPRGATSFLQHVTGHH

SMILES: CC1=C(C(=O)Nc2cc3cn[nH]c3cc2F)C(c2ccc(C(F)(F)F)cc2)CC(=O)N1 (stereo not given)
- kinase still bound, per cent of control [1]: 92%
- kinase still bound, per cent of control [2]: 60%
- kinase still bound, per cent of control [3]: 86%
- kinase still bound, per cent of control [4]: 24%
- kinase still bound, per cent of control [5]: 86%
- kinase still bound, per cent of control [6]: 52%
- kinase still bound, per cent of control [7]: 100%
- kinase still bound, per cent of control [8]: 83%
- kinase still bound, per cent of control [9]: 24%
- kinase still bound, per cent of control [10]: 97%
- kinase still bound, per cent of control [11]: 30%
- kinase still bound, per cent of control [12]: 92%
- kinase still bound, per cent of control [13]: 67%
- kinase still bound, per cent of control [14]: 100%
- kinase still bound, per cent of control [15]: 78%
- kinase still bound, per cent of control [16]: 88%
- kinase still bound, per cent of control [17]: 89%
- kinase still bound, per cent of control [18]: 88%
- kinase still bound, per cent of control [19]: 80%
- kinase still bound, per cent of control [20]: 82%
- kinase still bound, per cent of control [21]: 80%
- kinase still bound, per cent of control [22]: 70%
- kinase still bound, per cent of control [23]: 99%
- kinase still bound, per cent of control [24]: 100%
- kinase still bound, per cent of control [25]: 78%
- kinase still bound, per cent of control [26]: 45%
- kinase still bound, per cent of control [27]: 100%
- kinase still bound, per cent of control [28]: 72%
- kinase still bound, per cent of control [29]: 96%
- kinase still bound, per cent of control [30]: 84%
- kinase still bound, per cent of control [31]: 79%
- kinase still bound, per cent of control [32]: 100%
- kinase still bound, per cent of control [33]: 100%
- kinase still bound, per cent of control [34]: 95%
- kinase still bound, per cent of control [35]: 70%
- kinase still bound, per cent of control [36]: 100%
- kinase still bound, per cent of control [37]: 96%
- kinase still bound, per cent of control [38]: 96%
- kinase still bound, per cent of control [39]: 87%
- kinase still bound, per cent of control [40]: 98%

SMILES: N#C/C(=C1/Nc2ccccc2S1)c1ccnc(NCCc2cccnc2)n1
- kinase still bound, per cent of control [1]: 2.3%
- kinase still bound, per cent of control [2]: 59%
- kinase still bound, per cent of control [3]: 42%
- kinase still bound, per cent of control [4]: 100%
- kinase still bound, per cent of control [5]: 55%
- kinase still bound, per cent of control [6]: 100%
- kinase still bound, per cent of control [7]: 100%
- kinase still bound, per cent of control [8]: 89%
- kinase still bound, per cent of control [9]: 61%
- kinase still bound, per cent of control [10]: 48%
- kinase still bound, per cent of control [11]: 100%
- kinase still bound, per cent of control [12]: 42%
- kinase still bound, per cent of control [13]: 33%
- kinase still bound, per cent of control [14]: 100%
- kinase still bound, per cent of control [15]: 100%
- kinase still bound, per cent of control [16]: 100%
- kinase still bound, per cent of control [17]: 34%
- kinase still bound, per cent of control [18]: 50%
- kinase still bound, per cent of control [19]: 100%
- kinase still bound, per cent of control [20]: 81%
- kinase still bound, per cent of control [21]: 100%
- kinase still bound, per cent of control [22]: 64%
- kinase still bound, per cent of control [23]: 100%
- kinase still bound, per cent of control [24]: 42%
- kinase still bound, per cent of control [25]: 100%
- kinase still bound, per cent of control [26]: 82%
- kinase still bound, per cent of control [27]: 100%
- kinase still bound, per cent of control [28]: 69%
- kinase still bound, per cent of control [29]: 60%
- kinase still bound, per cent of control [30]: 86%
- kinase still bound, per cent of control [31]: 100%
- kinase still bound, per cent of control [32]: 42%
- kinase still bound, per cent of control [33]: 100%
- kinase still bound, per cent of control [34]: 100%
- kinase still bound, per cent of control [35]: 74%
- kinase still bound, per cent of control [36]: 62%
- kinase still bound, per cent of control [37]: 100%
- kinase still bound, per cent of control [38]: 24%
- kinase still bound, per cent of control [39]: 100%
- kinase still bound, per cent of control [40]: 26%
